Data reported in US6005103A, “Pyrone derivatives as protease inhibitors and antiviral agents” (Warner-Lambert Company, priority 1994, dated 1999).
≈ marks a conversion by molar mass, not a printed value.

Assays:
[1] = tested on: Enterococcus foecalis MGH2; assay: Antibacterial activity, microtitration dilution method; assay type: cell-based; settings: read-out: minimum inhibitory concentration (MIC)
Description: (§1) The compounds of the invention display antibacterial activity when tested by the microtitration dilution method as described in Heifetz, et al., Antimicr. Agents. & Chemoth. 6: 124 (1974) which is incorporated herein by reference.
(§2) By use of the above referenced method, the following minimum inhibitory concentration values (MICs in μg/mL) were obtained for representative compounds of the invention vs. clinically relevant gram positive pathogens which have become highly resistant to conventional therapy in recent years.

[2] = tested on: Staphylococcus aureus H228; assay: as above; assay type: cell-based; settings: read-out: minimum inhibitory concentration (MIC)
Description: as §1, §2

[3] = tested on: Staphylococcus aureus UC-76; assay: as above; assay type: cell-based; settings: UC76, read-out: minimum inhibitory concentration (MIC)
Description: as §1, §2

[4] = tested on: Streptococcus pneumonia 5V-1; assay: as above; assay type: cell-based; settings: Streptococcus pneumoniae, 5V1, read-out: minimum inhibitory concentration (MIC)
Description: as §1, §2

[5] = tested on: Streptococcus pyogenes C203; assay: as above; assay type: cell-based; settings: read-out: minimum inhibitory concentration (MIC)
Description: as §1, §2

[6] = tested on: HIV; settings: cell-free and cell-mediated HIV infection; cited from earlier work

SMILES	MIC [1] [µg/mL]	MIC [2] [µg/mL]	MIC [3] [µg/mL]	MIC [4] [µg/mL]	MIC [5] [µg/mL]	HIV infection inhibition (in words) [6]
CC(C)CC(SC1CCCCC1)c1c(O)cc(-c2ccccc2)oc1=O (racemic) [Example 142, 3-[l-(Cyclohexylthio)-3-methylbutyl]-4-hydroxy-6-phenyl-2H-pyran-2-one (±)]	25 (≈ 67.1 µM)	12.5 (≈ 33.6 µM)	12.5 (≈ 33.6 µM)	25 (≈ 67.1 µM)	25 (≈ 67.1 µM)	
CC(=O)CC(c1ccccc1)c1c(O)c2ccccc2oc1=O (stereo not drawn) [Warfarin, 3-(α-acetonylbenzyl)-4-hydroxycoumarin]						inhibiting cell-free and cell-mediated HIV infection
